Source: patent US20240041047A1, “ENHANCED ANTIMICROBIAL EFFICACY (SYNERGY) OF SILVER AND COPPER COMPOUNDS AND MEDICAL USE OF THEIR COMBINATIONS” (Nanordica Medical OÜ, priority 2021, published 2024)

Experiments:
[1] = system: Gram-negative and Gram-positive bacteria commonly colonizing wounds; test: Antibacterial synergy K(Syn) of Ag and Cu compounds across bacterial strains (FIG. 3, FIG. 5); assay type: cell-based
Description: FIGS. 3A and 3B show the synergistic effect of CuO NPs and CuSO4 with Ag NPs (A) or AgNO3 (B) to a range of Gram-negative and Gram-positive bacteria commonly colonizing wounds. Bacterial suspension was incubated with Ag NPs, CuO NPs, respective ions or their combinations for 24 h, plated on agarized broth, and MBC was determined.
In order to quantify and compare the synergistic effect between different Ag and Cu compounds and among various bacterial strains, we introduced the term “Coefficient of antimicrobial synergy”, K(Syn), showing the antimicrobial efficiency of Ag compound and Cu compound combinations (mix) compared to the sum of the MBC values of individual compounds and calculated as follows: […]
In order to quantify and compare the synergistic effect between different Ag NPs and Copper compounds among various bacterial strains, we introduced the term “Coefficient of antibacterial synergy”, K(Syn), showing the antimicrobial efficiency of Ag- and copper compound combinations (mix) compared to the sum of the MBC values of individual Ag- and Cu compounds and calculated as follows: […]
Bacterial suspensions were incubated with Ag NPs, CuO NPs, respective ions or their combinations for 24 h, plated on agarized broth, and MBC was determined. […]

E. coli K-12 (G−) = test: MBC of Ag NPs, Cu compounds and combinations, 24 h incubation, plated on agarized broth; assay type: cell-based, Escherichia coli
E. coli ESBL (G−) = test: as above; assay type: cell-based, Escherichia coli
P. aeruginosa PAO1 (G−) = test: as above; assay type: cell-based, Pseudomonas aeruginosa
[2] = system: S. aureus ATCC 25923 (G+); test: as above; assay type: cell-based, Staphylococcus aureus
[3] = system: E. faecalis ATCC 29212 (G+); test: as above; assay type: cell-based, Enterococcus faecalis
[4] = system: S. dysgalacticae DSM 23147 (G+); test: as above; assay type: cell-based

Compound | synergistic effect with Cu compounds compared with Ag NPs ([1]; ionic silver used instead of Ag NPs (FIG. 3B)) | K (Syn) (E. coli K-12 (G−); E. coli K-12, Cu compound + Ag NPs) | MBC (CuX) in combination (E. coli K-12 (G−); E. coli K-12, Cu compound in combination with Ag NPs) | MBC alone (E. coli K-12 (G−); E. coli K-12, compound alone) | K (Syn) (E. coli ESBL (G−); Cu compound + Ag NPs) | MBC (CuX) in combination (E. coli ESBL (G−); Cu compound in combination with Ag NPs) | MBC alone (E. coli ESBL (G−); compound alone) | K (Syn) (P. aeruginosa PAO1 (G−); P. aeruginosa PAO1, Cu compound + Ag NPs) | MBC (CuX) in combination (P. aeruginosa PAO1 (G−); P. aeruginosa PAO1, Cu compound in combination with Ag NPs) | MBC alone (P. aeruginosa PAO1 (G−); P. aeruginosa PAO1, compound alone) | K (Syn) ([2]; S. aureus ATCC 25923, Cu compound + Ag NPs) | MBC (CuX) in combination ([2]; S. aureus ATCC 25923, Cu compound in combination with Ag NPs) | MBC alone ([2]; S. aureus ATCC 25923, compound alone) | K (Syn) ([3]; E. faecalis ATCC 29212, Cu compound + Ag NPs) | MBC (CuX) in combination ([3]; E. faecalis ATCC 29212, Cu compound in combination with Ag NPs) | MBC alone ([3]; E. faecalis ATCC 29212, compound alone) | K (Syn) ([4]; S. dysgalacticae DSM 23147, Cu compound + Ag NPs) | MBC (CuX) in combination ([4]; S. dysgalacticae DSM 23147, Cu compound in combination with Ag NPs) | MBC alone ([4]; S. dysgalacticae DSM 23147, compound alone) | synergy with Ag NPs, K(Syn), ranking among Cu compounds ([1]; all tested bacterial strains (FIG. 3A))
O=[N+]([O-])[O-].[Ag+] [AgNO3, reference compound] | considerably lower |  |  |  |  |  |  |  |  |  |  |  |  |  |  |  |  |  |  | 
O=S(=O)([O-])[O-].[Cu+2] [CuSO4] |  | 5.055 ± 0.383 | 22.5 ± 16.3 µg/mL | 217.6 ± 72.8 µg/mL | 4.727 ± 0.63 | 25 ± 0 µg/mL | 200 ± 0 µg/mL | 2.783 ± 0.687 | 20 ± 6.85 µg/mL | 720 ± 178.9 µg/mL | 3.659 ± 1.083 | 16.25 ± 8.39 µg/mL | 90 ± 22.36 µg/mL | 4.254 ± 0.977 | 20.83 ± 7.22 µg/mL | 200 ± 0 µg/mL | 3.909 ± 0.832 | 12.5 ± 0 µg/mL | 133.3 ± 57.7 µg/mL | highest
